Laboratory results taken from the NIST ThermoML archive (doi:10.1016/j.jct.2016.06.020).
± gives the expanded uncertainty stated by the source.

Assays:
[1] = Molar enthalpy of transition or fusion; settings: Crystal; DSC
[2] = Crystal; DTA

Molar enthalpy of transition or fusion [1]: 4.97 ± 0.167 kcal/mol
Normal melting temperature [2]: 118.6 ± 0.6 °C
Compound: CCN1C(=O)N(C)[C@@H]2[C@H]1N(C)C(=O)N2CC (racemic)
